Publication PMC9288506, “Compounds activating VCP D1 ATPase enhance both autophagic and proteasomal neurotoxic protein clearance” (Nature Communications, 2022)

What was measured:
CDK1/cyclin B = CDK1/cyclin B (Homo sapiens, UniProt P06493); test: biochemical; design: Thermo Fisher in vitro kinase panel, per cent inhibition of kinase activity at 10 uM
Protocol: (§1) Kinase profiling of SMER28 and analogs SMER28 and analogs were tested at 10 µM in a panel of 123 kinases at ThermoFisher Scientific. Follow-up of selected kinases for SMER28 and analogs was also performed at ThermoFisher Scientific. Data are shown in Supplementary Data 2 and 3. […] An inhibition of PIK3C could induce autophagy, mediated by signaling through the AKT/mTOR axis[45].

INSR = INSR (Homo sapiens, UniProt P06213); test: biochemical; design: Thermo Fisher in vitro kinase panel, per cent inhibition of kinase activity at 10 uM
Chain of INSR (P06213 whole entry): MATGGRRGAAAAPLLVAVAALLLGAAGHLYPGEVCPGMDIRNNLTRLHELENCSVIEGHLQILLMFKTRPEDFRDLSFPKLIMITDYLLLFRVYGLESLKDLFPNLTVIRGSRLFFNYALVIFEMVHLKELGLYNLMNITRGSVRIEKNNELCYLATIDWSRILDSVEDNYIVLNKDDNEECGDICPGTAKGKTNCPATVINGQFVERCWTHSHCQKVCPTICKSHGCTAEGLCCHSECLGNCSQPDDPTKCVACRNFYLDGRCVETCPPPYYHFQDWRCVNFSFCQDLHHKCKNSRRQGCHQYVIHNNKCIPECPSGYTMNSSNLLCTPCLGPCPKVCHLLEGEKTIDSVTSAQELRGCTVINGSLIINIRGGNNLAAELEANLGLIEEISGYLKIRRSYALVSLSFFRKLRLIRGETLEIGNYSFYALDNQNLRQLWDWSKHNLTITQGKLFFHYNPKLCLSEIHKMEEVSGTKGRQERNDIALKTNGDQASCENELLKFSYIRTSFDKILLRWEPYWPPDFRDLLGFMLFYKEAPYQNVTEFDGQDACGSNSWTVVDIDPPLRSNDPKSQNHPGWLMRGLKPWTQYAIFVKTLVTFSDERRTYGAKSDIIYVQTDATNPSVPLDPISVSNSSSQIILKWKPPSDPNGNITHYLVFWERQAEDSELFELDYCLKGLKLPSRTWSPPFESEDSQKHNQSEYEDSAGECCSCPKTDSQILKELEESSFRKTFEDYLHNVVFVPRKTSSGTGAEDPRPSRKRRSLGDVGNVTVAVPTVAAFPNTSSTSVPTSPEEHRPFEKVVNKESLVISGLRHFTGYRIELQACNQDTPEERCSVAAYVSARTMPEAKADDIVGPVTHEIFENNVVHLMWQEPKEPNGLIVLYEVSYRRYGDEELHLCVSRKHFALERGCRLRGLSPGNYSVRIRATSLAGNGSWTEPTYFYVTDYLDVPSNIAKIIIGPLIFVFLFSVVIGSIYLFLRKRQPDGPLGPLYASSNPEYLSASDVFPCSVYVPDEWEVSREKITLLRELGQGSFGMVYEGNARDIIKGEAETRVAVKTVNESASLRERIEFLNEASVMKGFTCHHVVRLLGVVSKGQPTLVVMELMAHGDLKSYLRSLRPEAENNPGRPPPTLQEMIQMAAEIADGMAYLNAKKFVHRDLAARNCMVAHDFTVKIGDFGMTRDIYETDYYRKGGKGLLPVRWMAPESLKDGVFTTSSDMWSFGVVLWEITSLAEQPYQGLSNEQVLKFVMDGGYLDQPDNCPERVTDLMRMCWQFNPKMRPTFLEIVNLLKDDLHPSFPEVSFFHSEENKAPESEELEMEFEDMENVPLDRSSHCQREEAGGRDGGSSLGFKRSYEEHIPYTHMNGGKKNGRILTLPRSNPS
Protocol: as §1

PAK1 = PAK1 (Homo sapiens, UniProt Q13153); test: biochemical; design: Thermo Fisher in vitro kinase panel, per cent inhibition of kinase activity at 10 uM
Protocol: as §1

AKT2 (PKB beta) = AKT2 (PKB beta) (Homo sapiens, UniProt P31751); test: biochemical; design: Thermo Fisher in vitro kinase panel, per cent inhibition of kinase activity at 10 uM
Chain of AKT2 (PKB beta) (P31751 whole entry): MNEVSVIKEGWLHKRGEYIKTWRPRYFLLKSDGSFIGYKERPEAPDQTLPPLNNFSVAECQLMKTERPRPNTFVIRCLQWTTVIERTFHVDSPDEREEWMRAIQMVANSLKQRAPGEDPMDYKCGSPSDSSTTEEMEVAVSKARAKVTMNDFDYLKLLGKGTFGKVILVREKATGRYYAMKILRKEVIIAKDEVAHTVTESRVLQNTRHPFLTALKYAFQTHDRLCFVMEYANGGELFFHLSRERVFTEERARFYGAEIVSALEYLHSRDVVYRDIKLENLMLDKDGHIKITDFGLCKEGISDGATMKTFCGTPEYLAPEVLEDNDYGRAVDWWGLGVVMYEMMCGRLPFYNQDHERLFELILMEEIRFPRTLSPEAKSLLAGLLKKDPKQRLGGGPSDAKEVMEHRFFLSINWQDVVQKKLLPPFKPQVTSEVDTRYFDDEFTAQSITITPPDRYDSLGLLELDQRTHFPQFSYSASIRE
Protocol: as §1

TGFBR1 (ALK5) = TGFBR1 (ALK5) (Homo sapiens, UniProt P36897); test: biochemical; design: Thermo Fisher in vitro kinase panel, per cent inhibition of kinase activity at 10 uM
Chain of TGFBR1 (ALK5) (P36897 whole entry): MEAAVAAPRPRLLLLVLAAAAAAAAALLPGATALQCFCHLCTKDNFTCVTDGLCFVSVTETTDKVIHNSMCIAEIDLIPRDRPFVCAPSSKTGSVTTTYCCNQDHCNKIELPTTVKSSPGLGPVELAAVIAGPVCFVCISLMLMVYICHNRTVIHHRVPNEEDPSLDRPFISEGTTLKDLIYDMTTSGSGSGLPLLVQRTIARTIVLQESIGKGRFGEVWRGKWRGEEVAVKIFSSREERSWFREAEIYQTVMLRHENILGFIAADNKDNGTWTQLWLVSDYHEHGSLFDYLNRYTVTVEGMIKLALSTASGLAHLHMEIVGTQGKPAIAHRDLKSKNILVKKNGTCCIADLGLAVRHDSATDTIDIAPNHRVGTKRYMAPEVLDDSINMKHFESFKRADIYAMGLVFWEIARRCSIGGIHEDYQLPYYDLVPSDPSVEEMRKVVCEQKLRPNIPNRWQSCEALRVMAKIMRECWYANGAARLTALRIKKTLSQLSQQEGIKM
Protocol: as §1

NUAK1 (ARK5) = NUAK1 (ARK5) (Homo sapiens, UniProt O60285); test: biochemical; design: Thermo Fisher in vitro kinase panel, per cent inhibition of kinase activity at 10 uM
Protocol: as §1

AXL = AXL (Homo sapiens, UniProt P30530); test: biochemical; design: Thermo Fisher in vitro kinase panel, per cent inhibition of kinase activity at 10 uM
Protocol: as §1

IGF1R = IGF1R (Homo sapiens, UniProt P08069); test: biochemical; design: Thermo Fisher in vitro kinase panel, per cent inhibition of kinase activity at 10 uM
Protocol: as §1

FGFR1 V561M = FGFR1 V561M (Homo sapiens, UniProt P11362, V561M); test: biochemical; design: Thermo Fisher in vitro kinase panel, per cent inhibition of kinase activity at 10 uM
Chain of FGFR1 V561M (P11362 whole entry V561M): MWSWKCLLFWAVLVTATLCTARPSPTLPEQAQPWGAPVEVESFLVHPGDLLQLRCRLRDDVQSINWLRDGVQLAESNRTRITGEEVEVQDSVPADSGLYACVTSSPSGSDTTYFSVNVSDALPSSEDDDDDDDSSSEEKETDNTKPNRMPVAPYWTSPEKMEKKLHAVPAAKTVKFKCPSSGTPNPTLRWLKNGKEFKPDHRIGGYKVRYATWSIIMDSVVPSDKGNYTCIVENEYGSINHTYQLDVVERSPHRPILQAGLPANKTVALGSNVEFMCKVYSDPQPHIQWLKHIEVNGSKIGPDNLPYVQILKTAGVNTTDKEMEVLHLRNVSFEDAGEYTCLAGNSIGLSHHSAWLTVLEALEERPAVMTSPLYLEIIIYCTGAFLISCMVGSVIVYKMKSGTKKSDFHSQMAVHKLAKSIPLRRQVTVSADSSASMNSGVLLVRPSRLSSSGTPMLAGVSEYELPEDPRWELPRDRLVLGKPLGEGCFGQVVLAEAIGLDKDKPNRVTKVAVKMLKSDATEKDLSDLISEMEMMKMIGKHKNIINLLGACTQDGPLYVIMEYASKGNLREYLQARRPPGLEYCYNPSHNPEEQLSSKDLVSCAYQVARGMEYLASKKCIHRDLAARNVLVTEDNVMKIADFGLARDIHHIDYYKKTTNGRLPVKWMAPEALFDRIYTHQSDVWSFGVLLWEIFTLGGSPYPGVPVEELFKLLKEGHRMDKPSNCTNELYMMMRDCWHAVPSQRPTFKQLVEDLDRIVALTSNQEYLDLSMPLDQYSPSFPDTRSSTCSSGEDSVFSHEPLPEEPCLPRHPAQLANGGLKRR
Protocol: as §1

ACVR1B (ALK4) = ACVR1B (ALK4) (Homo sapiens, UniProt P36896); test: biochemical; design: Thermo Fisher in vitro kinase panel, per cent inhibition of kinase activity at 10 uM
Protocol: as §1

KIT = KIT (Homo sapiens, UniProt P10721); test: biochemical; design: Thermo Fisher in vitro kinase panel, per cent inhibition of kinase activity at 10 uM
Protocol: as §1

MARK1 (MARK) = MARK1 (MARK) (Homo sapiens, UniProt Q9P0L2); test: biochemical; design: Thermo Fisher in vitro kinase panel, per cent inhibition of kinase activity at 10 uM
Protocol: as §1

IKBKB (IKK beta) = IKBKB (IKK beta) (Homo sapiens, UniProt O14920); test: biochemical; design: Thermo Fisher in vitro kinase panel, per cent inhibition of kinase activity at 10 uM
Protocol: as §1

MAP2K1 (MEK1) = MAP2K1 (MEK1) (Homo sapiens, UniProt Q02750); test: biochemical; design: Thermo Fisher in vitro kinase panel, per cent inhibition of kinase activity at 10 uM
Protocol: as §1

RAF1 (cRAF) Y340D Y341D = RAF1 (cRAF) Y340D Y341D (Homo sapiens, UniProt P04049, Y340D/Y341D); test: biochemical; design: Thermo Fisher in vitro kinase panel, per cent inhibition of kinase activity at 10 uM
Protocol: as §1

YES1 = YES1 (Homo sapiens, UniProt P07947); test: biochemical; design: Thermo Fisher in vitro kinase panel, per cent inhibition of kinase activity at 10 uM
Protocol: as §1

RPS6KB1 (p70S6K) = RPS6KB1 (p70S6K) (Homo sapiens, UniProt P23443); test: biochemical; design: Thermo Fisher in vitro kinase panel, per cent inhibition of kinase activity at 10 uM
Protocol: as §1

MAPKAPK5 (PRAK) = MAPKAPK5 (PRAK) (Homo sapiens, UniProt Q8IW41); test: biochemical; design: Thermo Fisher in vitro kinase panel, per cent inhibition of kinase activity at 10 uM
Protocol: as §1

PTK2 (FAK) = PTK2 (FAK) (Homo sapiens, UniProt Q05397); test: biochemical; design: Thermo Fisher in vitro kinase panel, per cent inhibition of kinase activity at 10 uM
Chain of PTK2 (FAK) (Q05397 whole entry): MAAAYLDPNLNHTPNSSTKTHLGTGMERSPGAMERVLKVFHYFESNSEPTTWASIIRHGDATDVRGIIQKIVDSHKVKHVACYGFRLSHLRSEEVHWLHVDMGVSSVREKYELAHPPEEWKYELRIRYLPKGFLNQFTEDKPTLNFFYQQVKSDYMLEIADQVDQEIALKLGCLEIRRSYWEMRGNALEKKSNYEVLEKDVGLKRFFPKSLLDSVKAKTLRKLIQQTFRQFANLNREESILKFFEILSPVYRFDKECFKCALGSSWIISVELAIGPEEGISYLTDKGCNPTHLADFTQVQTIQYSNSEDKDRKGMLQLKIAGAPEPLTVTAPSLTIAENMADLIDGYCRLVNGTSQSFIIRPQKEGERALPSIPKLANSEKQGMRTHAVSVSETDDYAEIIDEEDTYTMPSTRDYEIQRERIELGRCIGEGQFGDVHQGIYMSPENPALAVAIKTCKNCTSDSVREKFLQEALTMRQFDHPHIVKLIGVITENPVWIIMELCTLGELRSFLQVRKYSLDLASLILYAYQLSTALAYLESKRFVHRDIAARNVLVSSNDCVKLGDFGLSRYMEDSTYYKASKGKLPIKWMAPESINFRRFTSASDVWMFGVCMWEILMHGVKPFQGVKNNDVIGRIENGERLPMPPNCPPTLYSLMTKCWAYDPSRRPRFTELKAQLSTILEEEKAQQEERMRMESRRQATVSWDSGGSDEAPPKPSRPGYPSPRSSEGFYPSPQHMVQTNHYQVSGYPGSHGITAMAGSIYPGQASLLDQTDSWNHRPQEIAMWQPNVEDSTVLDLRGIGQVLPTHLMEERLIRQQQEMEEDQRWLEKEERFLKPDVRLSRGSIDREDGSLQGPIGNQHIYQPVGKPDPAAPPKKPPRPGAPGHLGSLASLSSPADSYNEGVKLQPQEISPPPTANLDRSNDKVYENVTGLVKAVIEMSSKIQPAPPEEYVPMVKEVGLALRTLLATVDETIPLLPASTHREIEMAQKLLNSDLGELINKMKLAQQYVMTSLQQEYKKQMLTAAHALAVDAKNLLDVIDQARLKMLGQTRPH
Protocol: as §1

CDK2/cyclin A = CDK2/cyclin A (Homo sapiens, UniProt P24941); test: biochemical; design: Thermo Fisher in vitro kinase panel, per cent inhibition of kinase activity at 10 uM
Protocol: as §1

BMX = BMX (Homo sapiens, UniProt P51813); test: biochemical; design: Thermo Fisher in vitro kinase panel, per cent inhibition of kinase activity at 10 uM
Protocol: as §1

CDK9/cyclin T1 = CDK9/cyclin T1 (Homo sapiens, UniProt P50750); test: biochemical; design: Thermo Fisher in vitro kinase panel, per cent inhibition of kinase activity at 10 uM
Protocol: as §1

[1] = target: T1, VCP (p97, Valosin-containing protein) (Homo sapiens, UniProt P55072); test: SPR (also DARTS, LiP-MS, competition pulldown, ATPase activation); assay type: binding
T1 construct: Full-length VCP (6xHis-tag)

Chain of CDK1/cyclin B (P06493 whole entry): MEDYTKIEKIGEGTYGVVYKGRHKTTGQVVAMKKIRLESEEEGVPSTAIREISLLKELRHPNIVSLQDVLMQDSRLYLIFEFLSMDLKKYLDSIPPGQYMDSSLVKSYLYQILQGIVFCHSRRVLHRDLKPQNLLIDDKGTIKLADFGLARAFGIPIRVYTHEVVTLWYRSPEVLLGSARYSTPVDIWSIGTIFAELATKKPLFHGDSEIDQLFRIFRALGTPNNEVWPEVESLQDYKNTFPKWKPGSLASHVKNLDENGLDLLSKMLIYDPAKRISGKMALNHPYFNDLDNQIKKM
Chain of CDK1/cyclin B (P14635 whole entry partner): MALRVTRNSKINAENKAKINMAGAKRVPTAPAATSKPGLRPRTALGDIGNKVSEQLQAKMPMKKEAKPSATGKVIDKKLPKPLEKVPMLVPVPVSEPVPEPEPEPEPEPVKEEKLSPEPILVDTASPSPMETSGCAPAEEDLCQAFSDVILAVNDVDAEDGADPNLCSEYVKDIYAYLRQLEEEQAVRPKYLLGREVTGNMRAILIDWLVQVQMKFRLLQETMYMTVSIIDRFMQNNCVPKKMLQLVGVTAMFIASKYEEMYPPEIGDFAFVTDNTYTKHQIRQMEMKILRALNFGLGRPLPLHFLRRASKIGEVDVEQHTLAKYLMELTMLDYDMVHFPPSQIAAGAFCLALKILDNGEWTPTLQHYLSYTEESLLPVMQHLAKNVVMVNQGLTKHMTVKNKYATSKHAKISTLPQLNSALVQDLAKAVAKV

C=CCNc1ncnc2ccc(Br)cc12 [SMER28] was tested, and the inhibition at 10 µM (CDK1/cyclin B) was 22%, the inhibition at 10 µM (INSR) was -1% and the inhibition at 10 µM (PAK1) was 0%. The inhibition at 10 µM (AKT2 (PKB beta)) was -8%, the inhibition at 10 µM (TGFBR1 (ALK5)) was 6% and the inhibition at 10 µM (NUAK1 (ARK5)) was 40%. It also gave an inhibition at 10 µM (AXL) of 17%, an inhibition at 10 µM (IGF1R) of 12% and an inhibition at 10 µM (FGFR1 V561M) of 9%. The inhibition at 10 µM (ACVR1B (ALK4)) was -19%, the inhibition at 10 µM (KIT) was 25% and the inhibition at 10 µM (MARK1 (MARK)) was 11%. The inhibition at 10 µM (IKBKB (IKK beta)) was 17%, the inhibition at 10 µM (MAP2K1 (MEK1)) was 3% and the inhibition at 10 µM (RAF1 (cRAF) Y340D Y341D) was 13%. The inhibition at 10 µM (YES1) was 13%, the inhibition at 10 µM (RPS6KB1 (p70S6K)) was 22% and the inhibition at 10 µM (MAPKAPK5 (PRAK)) was 8%. The inhibition at 10 µM (PTK2 (FAK)) was 8%, the inhibition at 10 µM (CDK2/cyclin A) was 15% and the inhibition at 10 µM (BMX) was 11%. It also gave an inhibition at 10 µM (CDK9/cyclin T1) of 40% and a Kd [1] of ~750 nM.
